From ChEMBL document CHEMBL1156458, “chi-Conotoxin and tricyclic antidepressant interactions at the norepinephrine transporter define a new transporter model” (J Biol Chem, 2007)
pIC50: −log10 of the molar value.

Biological target: Sodium-dependent dopamine transporter (Homo sapiens, UniProt Q01959, F472L)
Assay: Inhibition of [3H]dopamine uptake at human DAT F472L mutant expressed in african green monkey COS1 cells after 48 hrs
Format: cell-based, COS-1

Chain of Sodium-dependent dopamine transporter (Q01959 whole entry F472L): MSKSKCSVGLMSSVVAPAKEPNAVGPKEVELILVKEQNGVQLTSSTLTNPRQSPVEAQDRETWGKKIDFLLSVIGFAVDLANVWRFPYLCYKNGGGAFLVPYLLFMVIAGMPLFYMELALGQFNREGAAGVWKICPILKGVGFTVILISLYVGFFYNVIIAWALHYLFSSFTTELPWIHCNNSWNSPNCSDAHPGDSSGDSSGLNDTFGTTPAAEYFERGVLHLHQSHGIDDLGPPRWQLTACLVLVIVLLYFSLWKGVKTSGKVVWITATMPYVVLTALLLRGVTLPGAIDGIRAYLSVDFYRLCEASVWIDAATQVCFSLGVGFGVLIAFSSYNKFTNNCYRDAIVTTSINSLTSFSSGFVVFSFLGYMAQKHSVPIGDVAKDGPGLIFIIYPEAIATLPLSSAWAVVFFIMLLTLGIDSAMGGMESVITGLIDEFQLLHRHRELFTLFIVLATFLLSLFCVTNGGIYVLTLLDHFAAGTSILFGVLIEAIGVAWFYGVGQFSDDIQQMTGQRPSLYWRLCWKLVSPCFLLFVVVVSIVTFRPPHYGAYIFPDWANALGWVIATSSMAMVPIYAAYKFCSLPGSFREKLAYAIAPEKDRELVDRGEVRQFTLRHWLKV

`CC(C)C[C@@H]1NC(=O)[C@H](CCCCN)NC(=O)[C@H](Cc2ccc(O)cc2)NC(=O)CNC(=O)[C@@H]2CSSC[C@H](NC1=O)C(=O)N[C@@H](Cc1cnc[nH]1)C(=O)N1C[C@H](O)C[C@H]1C(=O)N[C@H](C(=O)O)CSSC[C@H](NC(=O)[C@@H](NC(=O)CNC(=O)[C@@H](N)CC(N)=O)C(C)C)C(=O)N2` showed a pIC50 of 3.70.
